According to patent US20210236664A1, “ALPHA PARTICLE FORMULATIONS FOR TREATMENT OF SOLID TUMORS” (The Johns Hopkins University, priority 2018, published 2021):

Assays:
[1] = test system: castration resistant prostate cancer; conditions: castration resistant prostate cancer patients; cited from earlier work
Hep G2 tumor = assay: Tumor retention after intra-tumoral injection in hepatocellular carcinoma mouse model; assay type: in vivo, mice; conditions: n=3
Protocol: ^111In-DOTA-tetradecylamine(TDA) was synthesized with a radiolabeling yield >95%. The retention of ^111In-DOTA-TDA within a hepatocellular carcinoma mouse model was evaluated; Hep G2 tumor-bearing SCID mice (24 hours, n=3) and NCG mice (48 hours, n=3) following intra-tumoral injections of ^111In-DOTA-TDA alone or as a Lipiodol emulsion (FIG. 6).

[2] = Octanol partition coefficient
Source text: Partition coefficients will be as previously described with some minor modifications. Decristoforo, C., et al., 2008. Octanol and saline (pH=7.4) will be used to assess the […] of the proposed compounds. Briefly, the radiolabeled ^111In- and ^225Ac-labeled DOTA(GA)-alkyl chelates will be vortexed with octanol and saline then centrifuged to separate layers. Aliquots (3) from each layer will be removed and counted. The […] will be determined using the following equations:
Poct/saline=Log([activity]octanol/[activity]saline).
A greater than 95% purity was obtained following purification with a Seppak.

bladder cancer = conditions: survive >300 d following treatment; cited from earlier work

[Cl][223Ra][Cl] [XOFIGO®, Radium-223 Dichloride]
increased survival benefit [1]: 2.8 month

^111In-DOTA-tetradecylamine [^111In-DOTA-TDA]
uptake within the tumor (Hep G2 tumor; 24 hours, Hep G2 tumor-bearing SCID mice): 103±65.0 % ID/g | uptake within the tumor (Hep G2 tumor; 48 hours, Hep G2 tumor-bearing NCG mice): 20.0±15.9 % ID/g | Log Poct [2]: 1.57±0.005

CO[C@@]12[C@H](COC(N)=O)C3=C(C(=O)C(C)=C(N)C3=O)N1C[C@@H]1N[C@@H]12 [mitomycin C]
survival of mice (bladder cancer): 40%
